Data from article PMC7882696, “Co-production of Xylooligosaccharides and Xylose From Poplar Sawdust by Recombinant Endo-1,4-β-Xylanase and β-Xylosidase Mixture Hydrolysis” (Frontiers in Bioengineering and Biotechnology, 2021).

Columns and labels:
Format in all cases: biochemical, Dictyoglomus thermophilum
[1] = system: T1, Xln-DT; assay: glucose release, Michaelis-Menten; conditions: 0.2-10 g/L substrate
T1 construct: recombinant, pET-28a-xln-DT in E. coli BL21(DE3), heat treatment and Ni-NTA; ~55 kDa on SDS-PAGE
Description: glucose release, Michaelis-Menten on Xln-DT

[2] = system: T1, Xln-DT; assay: xylose release, Michaelis-Menten; conditions: 0.2-10 g/L substrate
Description: xylose release, Michaelis-Menten on Xln-DT

[3] = system: T1, Xln-DT; assay: pNP release at […] nm, Michaelis-Menten; conditions: 50 mM sodium phosphate pH 6.0, optimal temperature

SMILES | Km [3] [µM] | further results
OC[C@H]1O[C@@H](O[C@H]2[C@H](O)[C@@H](O)C(O)O[C@@H]2CO)[C@H](O)[C@@H](O)[C@@H]1O (some centres unmarked) [Cellobiose] | – | Km [1]: 11000 µM
OC1OC[C@@H](O[C@@H]2OC[C@@H](O)[C@H](O)[C@H]2O)[C@H](O)[C@H]1O (some centres unmarked) [X2, Xylobiose] | – | Km [2]: 930 µM
O=[N+]([O-])c1ccc(O[C@@H]2O[C@@H](CO)[C@H](O)[C@H]2O)cc1 [pNPA] | 1020 | –
O=[N+]([O-])c1ccc(O[C@@H]2O[C@H](CO)[C@@H](O)[C@H](O)[C@H]2O)cc1 [pNPG] | 3670 | –
O=[N+]([O-])c1ccc(O[C@@H]2OC[C@@H](O)[C@H](O)[C@H]2O)cc1 [pNPX] | 1660 | –
